From ChEMBL document CHEMBL1932938, “From COX-2 inhibitor nimesulide to potent anti-cancer agent: synthesis, in vitro, in vivo and pharmacokinetic evaluation” (Eur J Med Chem, 2012)

Assays:
[1] = test system: SK-BR-3; assay: cells; conditions: Homo sapiens, SK-BR-3, 48 h
Description: Cytotoxicity against human SK-BR-3 cells after 48 hrs by MTT assay

[2] = Solubility of the compound; assay type: physicochemical

SMILES | IC50 [1] [µM] | solubility [2]
COc1ccc(CC(=O)Nc2ccc(N(C)S(C)(=O)=O)c(OCc3cc(C)ccc3C)c2)cc1OC | 34 | 
CCCCCCCCCCCCCCCC(=O)Nc1ccc(N(C)S(C)(=O)=O)c(OCc2cc(C)ccc2C)c1 |  | Insoluble
Cc1ccc(C)c(COc2cc(NC(=O)Cc3ccccc3)ccc2N(C)S(C)(=O)=O)c1 | > 100 | 
